Experimental data reported in PubChem BioAssay AID248 (DTP/NCI, 2004).
Where “and” joins values, the source holds several entries; their conditions need not be identical. Equal values may be shown once. Toxic doses and inconclusive results are not listed. Rule as the data show it: active = T/C of 150% or more; inactive = T/C below 125%.

Tested on: L1210 leukemia ip in BDF1 mice, survival T/C
Test: NCI In Vivo Anticancer Drug Screen. Data for tumor model L1210 Leukemia (intraperitoneal) in B6D2F1 (BDF1) mice
Conditions: endpoint: mean survival time, higher = longer survival
How it was run: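 Tumor cells were implanted, animals were treated, and survival was followed. The result divides the treated measurement by the vehicle-control measurement.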

[1] = dose: 100.0 mg/kg/injection, schedule: Q01DX001 (ip), vehicle: saline
[2] = dose: 200.0 mg/kg/injection, schedule: Q01DX001 (ip), vehicle: saline
[3] = dose: 400.0 mg/kg/injection, schedule: Q01DX001 (ip), vehicle: saline
[4] = dose: 100.0 mg/kg/injection, schedule: Q04DX003 (ip), vehicle: saline with Tween-80
[5] = dose: 200.0 mg/kg/injection, schedule: Q04DX003 (ip), vehicle: saline with Tween-80
[6] = dose: 100.0 mg/kg/injection, schedule: Q01DX001 (ip), vehicle: other
[7] = dose: 50.0 mg/kg/injection, schedule: Q01DX009 (ip), vehicle: saline with Tween-80
[8] = dose: 100.0 mg/kg/injection, schedule: Q01DX009 (ip), vehicle: saline with Tween-80

Measured: T/C

COc1ccc(OC)c(/C=C/C=O)c1
inactive: [1] 110 % of control | [2] 96 % of control | [3] 98 % of control

CCOP(=O)(OCC)C1CC(C(C)C)CCC1C (centres undefined)
inactive: dose: 75.0 mg/kg/injection, schedule: Q01DX001 (ip), vehicle: other 93 % of control | dose: 150.0 mg/kg/injection, schedule: Q01DX001 (ip), vehicle: other 98 % of control | dose: 300.0 mg/kg/injection, schedule: Q01DX001 (ip), vehicle: other 110 % of control

CN(C)c1ccc2nc3ccc(=[N+](C)C)cc-3sc2c1
inactive: dose: 5.0 mg/kg/injection, schedule: Q01DX Z (ip), vehicle: carboxymethylcellulose (CMC) 93 % of control and 90 % of control | dose: 10.0 mg/kg/injection, schedule: Q01DX Z (ip), vehicle: carboxymethylcellulose (CMC) 100 % of control and 92 % of control | dose: 12.5 mg/kg/injection, schedule: Q01DX009 (ip), vehicle: saline 107 % of control | dose: 20.0 mg/kg/injection, schedule: Q01DX Z (ip), vehicle: carboxymethylcellulose (CMC) 98 % of control and 92 % of control | dose: 25.0 mg/kg/injection, schedule: Q01DX001 (ip), vehicle: saline 102 % of control | dose: 25.0 mg/kg/injection, schedule: Q01DX009 (ip), vehicle: saline 94 % of control | dose: 40.0 mg/kg/injection, schedule: Q01DX Z (ip), vehicle: carboxymethylcellulose (CMC) 105 % of control | dose: 50.0 mg/kg/injection, schedule: Q01DX001 (ip), vehicle: saline 97 % of control | dose: 50.0 mg/kg/injection, schedule: Q01DX009 (ip), vehicle: saline 103 % of control | [1] 108 % of control

CCCCCCCCCCCC(=O)[O][Sn]([CH2]CCC)([CH2]CCC)[O]C(=O)CCCCCCCCCCC
inactive: dose: 12.5 mg/kg/injection, schedule: Q04DX003 (ip), vehicle: saline with Tween-80 108 % of control

S=P(NC1CCCCC1)(NC1CCCCC1)NC1CCCCC1
inactive: [1] 95 % of control | [4] 101 % of control | [2] 95 % of control | [5] 97 % of control | [3] 90 % of control | dose: 400.0 mg/kg/injection, schedule: Q04DX003 (ip), vehicle: saline with Tween-80 97 % of control

C[NH-].C[NH-].[I][Pt+2][I]
inactive: dose: 12.0 mg/kg/injection, schedule: Q04DX003 (ip), vehicle: other 118 % of control | dose: 17.0 mg/kg/injection, schedule: Q04DX003 (ip), vehicle: other 113 % of control | dose: 18.0 mg/kg/injection, schedule: Q04DX003 (ip), vehicle: water 102 % of control | dose: 25.0 mg/kg/injection, schedule: Q04DX003 (ip), vehicle: other 108 % of control | dose: 25.0 mg/kg/injection, schedule: Q04DX003 (ip), vehicle: water 102 % of control | dose: 37.0 mg/kg/injection, schedule: Q04DX003 (ip), vehicle: other 111 % of control | dose: 37.0 mg/kg/injection, schedule: Q04DX003 (ip), vehicle: water 115 % of control | dose: 44.0 mg/kg/injection, schedule: Q01DX001 (ip), vehicle: other 113 % of control | dose: 50.0 mg/kg/injection, schedule: Q04DX003 (ip), vehicle: other 110 % of control | dose: 67.0 mg/kg/injection, schedule: Q01DX001 (ip), vehicle: other 114 % of control | [6] 120 % of control

O=C1OC(=O)c2ccc(S)c3cccc1c23
inactive: [7] 96 % of control | [8] 102 % of control | dose: 200.0 mg/kg/injection, schedule: Q01DX009 (ip), vehicle: saline with Tween-80 94 % of control and 101 % of control

Cc1cc[n+]2cc3ccc4ccccc4c3c(C)c2c1
inactive: dose: 2.0 mg/kg/injection, schedule: Q01DX015 (ip), vehicle: saline 102 % of control | dose: 3.12 mg/kg/injection, schedule: Q01DX009 (ip), vehicle: acetone 106 % of control | dose: 4.0 mg/kg/injection, schedule: Q01DX015 (ip), vehicle: saline 95 % of control | dose: 6.25 mg/kg/injection, schedule: Q01DX009 (ip), vehicle: acetone 101 % of control | dose: 8.0 mg/kg/injection, schedule: Q01DX015 (ip), vehicle: saline 101 % of control | dose: 12.5 mg/kg/injection, schedule: Q04DX003 (ip), vehicle: acetone 106 % of control | dose: 16.0 mg/kg/injection, schedule: Q01DX015 (ip), vehicle: saline 118 % of control

CC(C)(O)C(O)C(=O)O (centres undefined)
inactive: dose: 100.0 mg/kg/injection, schedule: Q01DX009 (ip), vehicle: saline 92 % of control | dose: 100.0 mg/kg/injection, schedule: Q04DX003 (ip), vehicle: saline 106 % of control | dose: 200.0 mg/kg/injection, schedule: Q01DX009 (ip), vehicle: saline 89 % of control | dose: 200.0 mg/kg/injection, schedule: Q04DX003 (ip), vehicle: saline 104 % of control | dose: 400.0 mg/kg/injection, schedule: Q04DX003 (ip), vehicle: saline 97 % of control

CCCCCCCCCCCCC/C=C\C(=O)N(CCCCN(C)C)CCCCN(C)C
inactive: dose: 2.0 mg/kg/injection, schedule: Q01DX009 (ip), vehicle: carboxymethylcellulose (CMC) 107 % of control | dose: 4.0 mg/kg/injection, schedule: Q01DX009 (ip), vehicle: carboxymethylcellulose (CMC) 104 % of control | dose: 6.0 mg/kg/injection, schedule: Q01DX009 (ip), vehicle: carboxymethylcellulose (CMC) 101 % of control | dose: 8.0 mg/kg/injection, schedule: Q01DX009 (ip), vehicle: carboxymethylcellulose (CMC) 103 % of control | dose: 10.0 mg/kg/injection, schedule: Q01DX009 (ip), vehicle: carboxymethylcellulose (CMC) 90 % of control

COc1ccc(CC2=[N+](C)CCc3cc(OC)c(OC)cc32)cc1OC
inactive: dose: 25.0 mg/kg/injection, schedule: Q01DX009 (ip), vehicle: other 101 % of control | dose: 50.0 mg/kg/injection, schedule: Q01DX009 (ip), vehicle: other 104 % of control | [6] 106 % of control | dose: 100.0 mg/kg/injection, schedule: Q01DX009 (ip), vehicle: other 106 % of control | dose: 400.0 mg/kg/injection, schedule: Q01DX001 (ip), vehicle: other 106 % of control

CCCCCCC(=O)/C=C/c1ccc(Cl)cc1Cl
inactive: dose: 100.0 mg/kg/injection, schedule: Q01DX009 (ip), vehicle: acetone 95 % of control | dose: 100.0 mg/kg/injection, schedule: Q04DX003 (ip), vehicle: acetone 86 % of control | dose: 200.0 mg/kg/injection, schedule: Q01DX009 (ip), vehicle: acetone 90 % of control | dose: 200.0 mg/kg/injection, schedule: Q04DX003 (ip), vehicle: acetone 91 % of control | dose: 400.0 mg/kg/injection, schedule: Q01DX009 (ip), vehicle: acetone 95 % of control | dose: 400.0 mg/kg/injection, schedule: Q04DX003 (ip), vehicle: acetone 93 % of control

C=C1C(=O)O[C@H]2C1[C@H](OC(=O)/C(C)=C\COC(C)=O)C[C@]1(CO1)[C@@H]1[C@H](O)[C@H]3O[C@@]3(C)[C@@H]12 (some centres undefined)
inactive: dose: 25.0 mg/kg/injection, schedule: Q04DX002 (ip), vehicle: other 105 % of control | dose: 50.0 mg/kg/injection, schedule: Q04DX002 (ip), vehicle: other 103 % of control | dose: 100.0 mg/kg/injection, schedule: Q04DX002 (ip), vehicle: other 97 % of control and 100 % of control

N#Cc1ccc(P(=O)(O)O)cc1
inactive: dose: 75.0 mg/kg/injection, schedule: Q01DX001 (ip), vehicle: saline 102 % of control | dose: 150.0 mg/kg/injection, schedule: Q01DX001 (ip), vehicle: saline 94 % of control

N#CSc1c[nH]c2ccccc12
inactive: [7] 96 % of control | [8] 101 % of control | [4] 104 % of control | [5] 95 % of control
